Assay results from the supplement of paper PMC10331698.
± gives the standard deviation of the averaged measurements.

Key:
Test in all cases: level (log10 ratio to DMSO vehicle control); higher = higher biomarker level / cell amount than vehicle control
Details in all cases: in DMSO
Perfluorooctanamide = compound: NC(=O)C(F)(F)C(F)(F)C(F)(F)C(F)(F)C(F)(F)C(F)(F)C(F)(F)F [Perfluorooctanamide]
Description: (§1)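 BioMAP Diversity Plus panel of 12 human primary cell co-culture systems (3C, 4H, LPS, SAg, BT, BF4T, BE3C, CASM3C, HDF3CGF, KF3CT, MyoF, Mphg). Compounds were added 1 h before stimulation and left for 24 h (MyoF 48 h; BT 72 h for soluble read-outs or 6 d for IgG). Biomarkers were read by ELISA, cytotoxicity by SRB, PBMC viability and proliferation by Alamar Blue. Each well value was divided by the mean of 8 DMSO control wells on the same plate and log10 transformed; duplicate blinded samples were tested at 4 concentrations.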

[1] = compound: CNS(=O)(=O)C(F)(F)C(F)(F)C(F)(F)C(F)(F)C(F)(F)C(F)(F)C(F)(F)C(F)(F)F [N-Methylperfluorooctanesulfonamide]
Description: as §1

1H,1H-Heptafluorobutanol = compound: OCC(F)(F)C(F)(F)C(F)(F)F [1H,1H-Heptafluorobutanol]
Description: as §1

[2] = compound: FC(F)(F)C(F)(F)C(F)(F)C(F)(F)C(F)(F)C(F)(F)C(F)(F)CCI [1-Iodo-1H,1H,2H,2H-perfluorononane]
Description: as §1

[3] = compound: O=P(O)(O)CCC(F)(F)C(F)(F)C(F)(F)C(F)(F)C(F)(F)C(F)(F)C(F)(F)C(F)(F)F [((Perfluorooctyl)ethyl)phosphonic acid]
Description: as §1

Hexafluoroglutaric acid = compound: O=C(O)C(F)(F)C(F)(F)C(F)(F)C(=O)O [Hexafluoroglutaric acid]
Description: as §1

[4] = compound: C=CC(=O)OCCC(F)(F)C(F)(F)C(F)(F)C(F)(F)F [2-(Perfluorobutyl)ethyl acrylate]
Description: as §1

| Test System | level (log10) (Perfluorooctanamide; 6700 nM) | level (log10) (Perfluorooctanamide; 20000 nM) | level (log10) (Perfluorooctanamide; 60000 nM) | level (log10) ([1]; 6700 nM) | level (log10) ([1]; 20000 nM) | level (log10) ([1]; 60000 nM) | level (log10) (1H,1H-Heptafluorobutanol; 6700 nM) | level (log10) (1H,1H-Heptafluorobutanol; 20000 nM) | level (log10) (1H,1H-Heptafluorobutanol; 60000 nM) | level (log10) ([2]; 6700 nM) | level (log10) ([2]; 20000 nM) | level (log10) ([3]; 6700 nM) | level (log10) ([3]; 20000 nM) | level (log10) ([3]; 60000 nM) | level (log10) (Hexafluoroglutaric acid; 6700 nM) | level (log10) (Hexafluoroglutaric acid; 20000 nM) | level (log10) (Hexafluoroglutaric acid; 60000 nM) | level (log10) ([4]; 6700 nM) | level (log10) ([4]; 20000 nM) | level (log10) ([4]; 60000 nM) |
| --- | --- | --- | --- | --- | --- | --- | --- | --- | --- | --- | --- | --- | --- | --- | --- | --- | --- | --- | --- | --- |
| BF4T:IL-1alpha | 0.008 ± 0.0099 | 0.003 ± 0.017 | -0.001 ± 0.024 | 0.0065 ± 0.0078 | 0.0005 ± 0.015 | 0.0285 ± 0.049 | -0.0125 ± 0.0092 | -0.016 | -0.007 ± 0.0042 | -0.011 ± 0.0042 | 0.033 ± 0.031 | -0.0165 ± 0.015 | -0.001 ± 0.0028 | 0.015 ± 0.02 | -0.0065 ± 0.015 | -0.0195 ± 0.0035 | -0.0045 ± 0.033 | -0.0115 ± 0.0078 | -0.0305 ± 0.011 | 0.012 ± 0.038 |
| LPS:CD40 | -0.034 ± 0.021 | -0.015 ± 0.0057 | -0.0265 ± 0.028 | -0.0545 ± 0.083 | -0.0265 ± 0.023 | -0.0375 ± 0.0078 | 0.056 ± 0.023 | 0.0345 ± 0.0064 | 0.0045 ± 0.049 | -0.0105 ± 0.019 | 0.034 ± 0.025 | -0.042 ± 0.041 | -0.0535 ± 0.00071 | -0.148 ± 0.0035 | 0 ± 0.0028 | -0.0035 ± 0.035 | 0.0085 ± 0.046 | -0.0445 ± 0.00071 | -0.044 ± 0.035 | -0.237 ± 0.035 |
| BF4T:MMP-9 | -0.0065 ± 0.011 | 0.0015 ± 0.039 | -0.031 ± 0.048 | -0.0095 ± 0.011 | 0.008 ± 0.0014 | -0.021 ± 0.045 | -0.03 ± 0.038 | -0.001 ± 0.011 | -0.0145 ± 0.0021 | 0.007 ± 0.044 | -0.0065 ± 0.028 | -0.014 ± 0.0014 | -0.014 ± 0.011 | 0.0305 ± 0.021 | -0.003 ± 0.0014 | -0.0135 ± 0.012 | 0.007 ± 0.0028 | -0.0015 ± 0.035 | -0.006 ± 0.057 | -0.013 ± 0.058 |
| BE3C:CXCL8/IL-8 | 0.011 ± 0.0028 | 0.011 ± 0.0071 | -0.0045 ± 0.005 | -0.112 ± 0.0021 | -0.118 ± 0.0042 | -0.2 ± 0.078 | 0.0275 ± 0.063 | 0 ± 0.04 | 0.003 ± 0.033 | 0.018 ± 0.11 | 0.0505 ± 0.12 | 0.0305 ± 0.033 | 0.019 ± 0.028 | -0.001 ± 0.048 | -0.011 ± 0.014 | -0.0165 ± 0.0064 | -0.011 ± 0.02 | 0.006 ± 0.025 | -0.0165 ± 0.06 | -0.016 ± 0.095 |
| BF4T:tPA | -0.015 ± 0.034 | -0.006 ± 0.017 | -0.004 ± 0.0042 | 0.0145 ± 0.011 | 0.0325 ± 0.03 | 0.0515 ± 0.019 | -0.0205 ± 0.00071 | -0.009 ± 0.013 | 0.0155 ± 0.037 | 0.0185 ± 0.0064 | -0.0135 ± 0.0064 | 0.0055 ± 0.013 | 0.0645 ± 0.005 | 0.072 ± 0.054 | -0.0195 ± 0.018 | -0.0205 ± 0.028 | -0.0045 ± 0.011 | 0.0005 ± 0.023 | -0.035 ± 0.023 | -0.0325 ± 0.00071 |
| 4H:CD106/VCAM-1 | -0.023 | -0.0235 ± 0.0035 | -0.01 ± 0.03 | 0 ± 0.0014 | 0.015 ± 0.0042 | -0.0435 ± 0.032 | 0 ± 0.03 | 0.0325 ± 0.023 | 0.027 ± 0.048 | -0.003 ± 0.027 | -0.0585 ± 0.083 | 0.011 ± 0.0099 | -0.0095 ± 0.016 | -0.002 ± 0.0028 | -0.005 ± 0.014 | -0.005 ± 0.03 | -0.0045 ± 0.012 | -0.0215 ± 0.013 | -0.0495 ± 0.056 | -0.123 ± 0.085 |
| BF4T:PAI-I | -0.009 ± 0.023 | -0.004 ± 0.017 | 0.0065 ± 0.005 | 0.0005 ± 0.018 | 0.0015 ± 0.028 | 0.0285 ± 0.033 | -0.015 ± 0.0042 | -0.009 | 0.0025 ± 0.028 | -0.0005 ± 0.013 | -0.013 ± 0.011 | 0.003 ± 0.0042 | 0.0055 ± 0.011 | 0.016 ± 0.021 | -0.0085 ± 0.022 | -0.002 ± 0.021 | 0.0165 ± 0.011 | -0.006 ± 0.025 | 0.007 ± 0.03 | -0.0255 ± 0.025 |
